From patent US9216999B2, “Substituted pyrrolo[2,3-h][1,6]naphthyridines and compositions thereof as JAK inhibitors” (priority 2011, dated 2015) come the findings set out here.

The structures appear in SMILES notation.

JAK3, sequence (P52333 whole entry): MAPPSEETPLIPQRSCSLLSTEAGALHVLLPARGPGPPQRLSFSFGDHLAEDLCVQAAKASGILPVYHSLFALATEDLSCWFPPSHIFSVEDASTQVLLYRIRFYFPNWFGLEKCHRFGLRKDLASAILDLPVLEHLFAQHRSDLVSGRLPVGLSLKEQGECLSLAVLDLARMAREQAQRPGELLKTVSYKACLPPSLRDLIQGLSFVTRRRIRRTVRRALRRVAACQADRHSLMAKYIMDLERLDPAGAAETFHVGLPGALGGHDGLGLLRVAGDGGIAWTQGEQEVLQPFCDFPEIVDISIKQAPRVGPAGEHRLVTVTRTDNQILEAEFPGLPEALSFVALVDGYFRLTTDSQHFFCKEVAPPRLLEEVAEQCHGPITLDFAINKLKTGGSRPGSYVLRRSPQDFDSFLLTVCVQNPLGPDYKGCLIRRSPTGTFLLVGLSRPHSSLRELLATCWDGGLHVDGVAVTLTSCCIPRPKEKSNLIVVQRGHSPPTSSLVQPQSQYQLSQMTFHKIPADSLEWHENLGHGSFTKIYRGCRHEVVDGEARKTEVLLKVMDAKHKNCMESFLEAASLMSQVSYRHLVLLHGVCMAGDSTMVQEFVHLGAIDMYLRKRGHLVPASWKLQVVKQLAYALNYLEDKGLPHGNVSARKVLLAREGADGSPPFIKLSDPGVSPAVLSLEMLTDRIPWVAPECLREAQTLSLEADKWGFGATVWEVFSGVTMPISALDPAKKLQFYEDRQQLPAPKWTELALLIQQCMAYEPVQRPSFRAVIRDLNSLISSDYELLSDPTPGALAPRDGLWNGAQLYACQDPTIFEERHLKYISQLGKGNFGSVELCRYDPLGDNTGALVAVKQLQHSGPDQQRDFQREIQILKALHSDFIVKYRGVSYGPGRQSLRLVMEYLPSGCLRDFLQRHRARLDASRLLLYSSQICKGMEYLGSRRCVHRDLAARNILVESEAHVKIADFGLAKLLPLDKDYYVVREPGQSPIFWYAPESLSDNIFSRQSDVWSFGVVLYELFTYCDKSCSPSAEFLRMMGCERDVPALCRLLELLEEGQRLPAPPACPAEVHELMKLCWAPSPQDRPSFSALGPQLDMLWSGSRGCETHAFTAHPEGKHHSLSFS

The first assay concerns the target JAK3 (Homo sapiens (Human), UniProt P52333). The experiment in a line: Enzyme assay (Assay Example^a 1), JAK3. The assay is classed as biochemical.
Conditions: not given
`N#Cc1ccc(N[C@H]2CC[C@@H](c3nnn4cnc5[nH]ccc5c34)CC2)cc1` [134a] showed an IC50 of 1 µM.
Still for that read-out and setting: with `N#Cc1ccc(N[C@H]2CC[C@H](c3nnn4cnc5[nH]ccc5c34)CC2)cc1` [134b] the figure was 0.66 µM.
Still for that read-out and setting: with `FC(F)(F)CN1CCC(c2nnn3cnc4[nH]ccc4c23)CC1` [compound 25] the figure was 0.44 µM; with `FC(F)(F)c1ccc(CN2CCC(c3nnn4cnc5[nH]ccc5c34)CC2)cn1` [compound 52], 0.041 µM.
Still for that read-out and setting: as for `Clc1ccc(CN2CCC(c3nnn4cnc5[nH]ccc5c34)CC2)cc1` [compound 54], the figure is 0.071 µM.
On to `CC(=O)SC[C@H]1CC[C@H](c2nnn3cnc4[nH]ccc4c23)CC1` [compound 71], for which the IC50 stood at 0.055 µM.
Still for that read-out and setting: with `O[C@H]1CC[C@H](c2nnn3cnc4[nH]ccc4c23)CC1` [compound 81] the figure was 0.64 µM; with `O[C@H]1CC[C@@H](c2nnn3cnc4[nH]ccc4c23)CC1` [compound 83], 0.28 µM.
On the same count and under the same terms, as for `Cc1cc(C#N)ccc1NC[C@H]1CC[C@H](c2nnn3cnc4[nH]ccc4c23)CC1` [compound 103], the figure is > 1 µM; as for `N#Cc1ccc(NC2CCC(c3nnn4cnc5[nH]ccc5c34)CC2)cc1` (centres unmarked) [compound 121], 0.46 µM.

Still in this assay, the particulars now being: ATP 100 μM.
Turning to `c1ccc2sc(CN3CCC(c4nnn5cnc6[nH]ccc6c45)CC3)nc2c1` [compound 232, 2-{[4-(7H-pyrrolo[3,2-e][1,2,3]triazolo[1,5-c]pyrimidin-1-yl)piperidin-1-yl]methyl}benzo[d]thiazole], the IC50 is > 1 µM.

Staying with this assay, now noted: ATP 100 μM; Table^a 154.
Turning to `O=C(Nc1nncs1)N1CCC(c2nnn3cnc4[nH]ccc4c23)CC1` [compound 30], inhibition was half-maximal at 0.48 µM (IC50).
Same read-out and setting: with `Cc1cc(NC(=O)N2CCC(c3nnn4cnc5[nH]ccc5c34)CC2)sn1` [compound 31] the figure was > 1 µM.
On the same count and under the same terms, with `N#Cc1cccc(CN2CCC(c3nnn4cnc5[nH]ccc5c34)CC2)c1` [compound 35] the figure was 0.26 µM.
Same read-out and setting: as for `FC(F)(F)c1cccc(CN2CCC(c3nnn4cnc5[nH]ccc5c34)CC2)c1` [compound 39], the figure is 0.53 µM; as for `CC(=O)OC[C@H]1CC[C@H](c2nnn3cnc4[nH]ccc4c23)CC1` [compound 72], 0.048 µM.
Consider `ClC[C@H]1CC[C@H](c2nnn3cnc4[nH]ccc4c23)CC1` [compound 75], for which the IC50 was 0.032 µM.
On the same count and under the same terms, with `O=C(OCc1ccccc1)N1CCC(c2[nH]c(=S)n3cnc4[nH]ccc4c23)CC1` [compound 85] the figure was > 1 µM; with `c1cc2c(ncn3nnc([C@H]4CC[C@H](CN5CCOCC5)CC4)c23)[nH]1` [compound 91], 0.64 µM; with `N#Cc1ccc(NC[C@H]2CC[C@H](c3nnn4cnc5[nH]ccc5c34)CC2)cc1` [compound 92], > 1 µM.
As for `N#Cc1ccc(CNC[C@H]2CC[C@H](c3nnn4cnc5[nH]ccc5c34)CC2)cc1` [compound 93], inhibition was half-maximal at 0.31 µM (IC50).
In the case of `c1cc2c(ncn3nnc(C4CCC(N5CCOCC5)CC4)c23)[nH]1` (centres unmarked) [compound 124], the IC50 is > 1 µM.
The same measure, in the same setting: as for `c1cc2c(ncn3nnc(C4CCC(NCCN5CCOCC5)CC4)c23)[nH]1` (centres unmarked) [compound 126], the figure is > 1 µM; as for `Fc1ccccc1CN1CCC(c2nnn3cnc4[nH]ccc4c23)CC1` [compound 142], 0.36 µM.
Regarding `c1coc(CN2CCC(c3nnn4cnc5[nH]ccc5c34)CC2)c1` [compound 146], the midpoint of inhibition, the IC50, lay at 0.31 µM.
`c1cc(CN2CCC(c3nnn4cnc5[nH]ccc5c34)CC2)[nH]n1` [compound 151] registered an IC50 of 0.63 µM.
On the same count and under the same terms, as for `c1cc2c(ncn3nnc(C4CCN(Cc5csnn5)CC4)c23)[nH]1` [compound 152], the figure is 0.032 µM.
For the compound `Brc1ncc(CN2CCC(c3nnn4cnc5[nH]ccc5c34)CC2)s1` [compound 153], the IC50 turned out to be 0.015 µM.
Still for that read-out and setting: with `Fc1ccc(CN2CCC(c3nnn4cnc5[nH]ccc5c34)CC2)cc1C(F)(F)F` [compound 154] the figure was 0.62 µM.
